The results in this text go back to ChEMBL document CHEMBL1126778, “Adenosine A1 antagonists. 3. Structure-activity relationships on amelioration against scopolamine- or N6-((R)-phenylisopropyl)adenosine-induced cognitive disturbance” (J Med Chem, 1993).

For one experiment, the target named is T1, Adenosine receptor A1 (Bos taurus, UniProt P28190).
T1 sequence (P28190 whole entry): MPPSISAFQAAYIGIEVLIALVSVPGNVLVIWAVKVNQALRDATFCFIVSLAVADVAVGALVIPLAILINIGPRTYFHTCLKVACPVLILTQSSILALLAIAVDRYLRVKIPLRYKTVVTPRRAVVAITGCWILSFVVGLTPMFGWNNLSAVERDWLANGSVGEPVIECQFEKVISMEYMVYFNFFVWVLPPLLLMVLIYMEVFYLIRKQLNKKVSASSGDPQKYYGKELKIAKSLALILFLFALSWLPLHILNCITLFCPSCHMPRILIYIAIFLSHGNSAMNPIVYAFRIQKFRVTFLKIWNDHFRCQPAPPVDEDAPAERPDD
The experiment can be described thus: Binding affinity towards Adenosine A1 receptor of bovine brain at 10e-5 M with [125I]-N6-aminobenzyladenosine.

Another experiment has as its target Adenosine A2 receptor (Homo sapiens, UniProt P29275+P29274). The experiment can be described thus: Binding affinity towards Adenosine A2 receptor of human platelets with [125I]-N6-aminobenzyladenosine.
Experiment [1] relates to Mus musculus. The experiment can be described thus: Acquisition time in (R)-PIA) induced avoidance test (performed in mice) for antagonistic activity after peroral administration of 0.08 mg/kg. It counts as functional. Particulars: route oral.
In experiment [2] the test system is Mus musculus. In words: Acquisition time in (R)-PIA) induced avoidance test (performed in mice) for antagonistic activity after p.o. administration of 0.31 mg/kg. It counts as functional. The settings on record: route oral.
In experiment [3] the test system is Mus musculus. The experiment can be described thus: Acquisition time in (R)-PIA) induced avoidance test (performed in mice) for antagonistic activity after p.o. administration of 1.25 mg/kg. The settings on record: route oral. It is filed as functional.
Experiment [4] concerns Mus musculus. The experiment can be described thus: Retention time in (R)-PIA) induced avoidance test (performed in mice) for antagonistic activity after p.o. administration of 1.25 mg/kg. It is filed as functional, organism-based. Details: dose 1.25 mg/kg.
The test system of experiment [5] is Mus musculus. In words: Retention time in (R)-PIA) induced avoidance test (performed in mice) for antagonistic activity after peroral administration of 5 mg/kg. It is filed as functional, organism-based. Details: dose 5 mg/kg.
Experiment [6] deals with Mus musculus. The experiment can be described thus: Retention time in (R)-PIA) induced avoidance test (performed in mice) for antagonistic activity after peroral administration of 0.08 mg/kg. It counts as functional, organism-based. The arrangement: dose 0.08 mg/kg.
In experiment [7] the test system is Mus musculus. In words: Retention time in (R)-PIA) induced avoidance test (performed in mice) for antagonistic activity after peroral administration of 0.31 mg/kg. It counts as functional, organism-based. Details: dose 0.31 mg/kg.
Experiment [8] relates to Rattus norvegicus. The experiment can be described thus: Acquisition time in Scopolamine induced avoidance test (performed in rat) for antagonistic activity after peroral administration of 1.25 mg/kg. It counts as functional. The settings on record: route oral.
For experiment [9], the system named is Rattus norvegicus. In words: Acquisition time in Scopolamine induced avoidance test (performed in rat) for antagonistic activity after peroral administration of 20 mg/kg. It is filed as functional. Particulars: route oral.
In experiment [10] the test system is Rattus norvegicus. The experiment can be described thus: Acquisition time in Scopolamine induced avoidance test (performed in rat) for antagonistic activity after p.o. administration of 0.08 mg/kg. Particulars: route oral. It counts as functional.
Experiment [11] relates to Rattus norvegicus. The experiment can be described thus: Acquisition time in Scopolamine induced avoidance test (performed in rat) for antagonistic activity after p.o. administration of 0.31 mg/kg. It is filed as functional. Particulars: route oral.
The subject of experiment [12] is Rattus norvegicus. In words: Acquisition time in Scopolamine induced avoidance test (performed in rat) for antagonistic activity after p.o. administration of 5 mg/kg. It is filed as functional. Particulars: route oral.
The subject of experiment [13] is Rattus norvegicus. In words: Retention time in Scopolamine induced avoidance test (performed in […]) for antagonistic activity after peroral administration of 5 mg/kg. It is filed as functional, organism-based. The arrangement: dose 5 mg/kg.
The subject of experiment [14] is Rattus norvegicus. In words: Retention time in Scopolamine induced avoidance test (performed in rat) for antagonistic activity after p.o. administration of 0.08 mg/kg. It is filed as functional, organism-based. Details: dose 0.08 mg/kg.
Experiment [15] has as its system Rattus norvegicus. The experiment can be described thus: Retention time in Scopolamine induced avoidance test (performed in rat) for antagonistic activity after p.o. administration of 0.31 mg/kg. Details: dose 0.31 mg/kg. It is filed as functional, organism-based.
The subject of experiment [16] is Rattus norvegicus. The experiment can be described thus: Retention time in Scopolamine induced avoidance test (performed in rat) for antagonistic activity after peroral administration of 1.25 mg/kg. It is filed as functional, organism-based. The arrangement: dose 1.25 mg/kg.
The subject of experiment [17] is Rattus norvegicus. The experiment can be described thus: Retention time in Scopolamine induced avoidance test (performed in rat) for antagonistic activity after peroral administration of 20 mg/kg. It counts as functional, organism-based. The arrangement: dose 20 mg/kg.
Experiment [18] deals with Mus musculus. In words: Acquisition time in (R)-PIA) induced avoidance test (performed in mice) for antagonistic activity after peroral administration of 5 mg/kg. It counts as functional. The settings on record: route oral.
Experiment [19] relates to Mus musculus. In words: Retention time in (R)-PIA) induced avoidance test (performed in mice) for antagonistic activity after peroral administration of 0.02 mg/kg.
The subject of experiment [20] is Mus musculus. The experiment can be described thus: Acquisition time in (R)-PIA) induced avoidance test (performed in mice) for antagonistic activity after peroral administration of 0.02 mg/kg. Particulars: route oral.
In experiment [21] the test system is Mus musculus. The experiment can be described thus: Acquisition time in (R)-PIA) induced avoidance test (performed in mice) for antagonistic activity after peroral administration of 0.31 mg/kg (n=15). The settings on record: route oral. It counts as functional.
Experiment [22] relates to Mus musculus. The experiment can be described thus: Retention time in (R)-PIA) induced avoidance test (performed in mice) for antagonistic activity after peroral administration of 0.31 mg/kg (n=15) (P<0.005). It counts as functional, organism-based. The arrangement: dose 0.31 mg/kg.
The subject of experiment [23] is Rattus norvegicus. The experiment can be described thus: Acquisition time in Scopolamine induced avoidance test (performed in rat) for antagonistic activity after peroral administration of 0.31 mg/kg (n=15). The settings on record: route oral. It is filed as functional.
The test system of experiment [24] is Rattus norvegicus. In words: Retention time in Scopolamine induced avoidance test (performed in rat) for antagonistic activity after peroral administration of 0.02 mg/kg. It counts as functional, organism-based. Details: dose 0.02 mg/kg.
The test system of experiment [25] is Rattus norvegicus. The experiment can be described thus: Retention time in Scopolamine induced avoidance test (performed in rat) for antagonistic activity after peroral administration of 0.31 mg/kg (n=15). It counts as functional, organism-based. The arrangement: dose 0.31 mg/kg.
The subject of experiment [26] is Rattus norvegicus. In words: Retention time in Scopolamine induced avoidance test (performed in rat) for antagonistic activity after peroral administration of 20 mg/kg (n=14). It is filed as functional, organism-based. Details: dose 20 mg/kg.
For experiment [27], the system named is Rattus norvegicus. The experiment can be described thus: Acquisition time in Scopolamine induced avoidance test (performed in rat) for antagonistic activity after peroral administration of 0.02 mg/kg. The settings on record: route oral.

The term Ki denotes a dissociation constant, usually derived from enzyme kinetics or from competition with a known ligand. A high value points to a looser hold on the target.

Molecules are shown by their SMILES.

With `CCCn1c(=O)c2nc(C3CCCC3)[nH]c2n(CCc2ccc(NC(=O)C(C)C)cc2)c1=O`, the values for the Ki at Adenosine receptor A1 and at Adenosine A2 receptor were 16 nM and above 100000 nM, respectively. Also, the Acquisition time with Mus musculus [1] came out at 16 s; in the experiment on Mus musculus [2], 29.3 s; with Mus musculus [3], 33.3 s; with Rattus norvegicus [8], 6.6 s; in the experiment on Rattus norvegicus [9], 9 s; in the experiment with Rattus norvegicus [10] it was 10.1 s. The Acquisition time in the experiment with Rattus norvegicus [11] came to 10.1 s; with Rattus norvegicus [12], 11.9 s; with Mus musculus [18], 34.4 s; with Mus musculus [20] it was 6 s. Further, the Retention time with Mus musculus [4] is 171 s; in the experiment with Mus musculus [5] it was 94.7 s; in the experiment with Mus musculus [6], 32.9 s; in the experiment on Mus musculus [7] it was 88.6 s; in the experiment with Rattus norvegicus [13], 20 s; in the experiment with Rattus norvegicus [14] it was 10.7 s. Also, the Retention time worked out at 18.6 s with Rattus norvegicus [15], 19.3 s in the experiment on Rattus norvegicus [16], 65.4 s in the experiment with Rattus norvegicus [17] and 9.4 s in the experiment on Mus musculus [19].
As to `CC(C)Cn1c(=O)n(C)c(=O)c2[nH]c(C(C3CC3)C3CC3)nc21`, the Acquisition time in the experiment with Mus musculus [1] was 25.7 s; in the experiment on Mus musculus [21], 26.4 s; in the experiment with Mus musculus [3], 19.9 s; in the experiment on Rattus norvegicus [8], 11.8 s; in the experiment on Rattus norvegicus [9], 9.6 s; in the experiment with Rattus norvegicus [10], 7.1 s. Also, the Acquisition time in the experiment with Rattus norvegicus [23] is 8.3 s; with Rattus norvegicus [12], 11.5 s; in the experiment with Mus musculus [18], 12.5 s; in the experiment on Rattus norvegicus [27] it was 10.1 s. In addition, the Retention time was determined as 349 s with Mus musculus [4]; 359 s with Mus musculus [5]; 171 s in the experiment with Mus musculus [6]; 370 s in the experiment on Mus musculus [22]; 9.9 s in the experiment with Rattus norvegicus [13]; 17.6 s in the experiment on Rattus norvegicus [24]. Further, the Retention time in the experiment on Rattus norvegicus [14] turned out to be 17.6 s; in the experiment on Rattus norvegicus [25], 50.9 s; in the experiment on Rattus norvegicus [16], 22.8 s; with Rattus norvegicus [26] it was 14.1 s.
